One assay has as its target α-glucosidase (Saccharomyces cerevisiae, UniProt P53341). Nature of the assay: α-Glucosidase inhibition assay (pNPG substrate). Format: biochemical. The following applies: for inhibition at 20 µM: read-out: α-Glucosidase Inhibitory Rate. As to the method:
The α-glucosidase inhibitory activity was measured according to the procedure described in the paper, with slight modifications. […] Immediately, 40 μL PNPG (2.5 mM) was added to each well and reacted at 37 °C for 30 min. […] The total volume of the reaction system was 200 μL. The α-glucosidase inhibition activity was calculated according to the following formula:Inhibition (%) = [1 − (A1 − A2)/(A3 − A4)] × 100(2) A1 = the absorbance of the sample group with α-glucosidase, A2 = the absorbance of the sample control group without α-glucosidase, A3 = the absorbance of the control group without samples, and A4 = the absorbance of the blank control without samples and α-glucosidase.
Results were expressed as IC50 values calculated according to Prism7.0 software.

Assay [1] in a line: DPPH free radical scavenging assay. The following applies: compounds; 30 min, room temperature. The method, then: (§1) The antioxidant activities of the crude extracts and isolated compounds were evaluated by implementing 2,2-diphenyl-1-picrylhydrazyl free radical scavenging (DPPH^+), 2,2’-azino-bis (3-ethylbenzothiazoline-6-sulphonic free radical scavenging (ABTS^+), and the ferric reducing antioxidant power (FRAP) assay.
The DPPH^+ assay was measured according to the previous report with slight modifications. […] The DPPH^+ was dissolved with anhydrous methanol to 0.1 mM.
Then 180 μL DPPH solution and 20 μL sample were mixed in each well of a 96-well plate and incubated for 30 min at room temperature in the dark. […] Ascorbic acid was used as a positive control. The DPPH^+ scavenging activity was calculated according to the following formula:Inhibition (%) = [1 − (A1 − A2)/(A3 − A4)] × 100(1) A1 = absorbance of the sample group with DPPH, A2 = absorbance of the sample control group without DPPH, A3 = absorbance of the control group with DPPH, and A4 = the absorbance of the blank control.

Assay [2] can be described thus: ABTS free radical scavenging assay (commercial kit, Trolox standard). Conditions: compounds. The method, then: as §1
(§2) ABTS^+ and FRAP assays were measured by commercial assay kits (Suzhou Comin Biotechnology Co., Ltd., Suzhou, China). The experimental method was determined according to the method used in the literature. The crude extracts and chemical compounds were dissolved in anhydrous ethanol at concentrations of 800 μg/mL and 40 μM. […] Trolox was used as a standard reference compound to quantitate ABTS^+ and FRAP capacity. The results were expressed in µmol Trolox/g or mol Trolox/mol. The standard curve was drawn using Trolox solutions at a range of concentrations.

Assay [3] can be described thus: Ferric reducing antioxidant power (FRAP) assay (commercial kit, Trolox standard). The following applies: compounds. The method, then: as §1, §2
In another assay the test system is 3T3-L1 adipocytes. Nature of the assay: Glucose uptake in 3T3-L1 adipocytes. Format: cell-based, mouse. The method, then: The 3T3-L1 preadipocytes were cultured and differentiated using the method described earlier with slight modifications. The 3T3-L1 preadipocytes were cultured in high glucose DMEM supplemented with 10% NBCS, 1% P/S, and then starved until the cells reached confluence (day 0). Two days later (day 2), the cells were induced for differentiation with high glucose DMEM supplemented with 10% FBS, 1% P/S, IBMX, DEX, Rosi, and insulin. On day 5, the medium was changed to high glucose DMEM containing 10% FBS, 1% P/S, and 100 nM insulin for one day (day 6). Then the cells were completely differentiated into mature adipocytes.
The glucose uptake test was carried out according to the procedure described in the paper. […] After 48 h of culture, the glucose uptake was measured according to the operating instructions of the glucose content determination kit. Following the glucose uptake test, the cell viability was determined using the CellTiter 96® aqueous cell proliferation test. […] Then the absorbance was measured using microplate reader at 490 nm after incubation at 37 °C for 4 h. The cell viability was calculated according to the following formula:Cell viability rate (%) = […] × 100 (3) A1 = the absorbance of the blank control, A2 = the absorbance of each fraction group, each compound group, or positive control group.

Read-outs that look alike come from different tables or passages of the source. Marks after values point to notes of the source that are not given here. Bounds are passed on as bounds.

α-glucosidase, sequence (P53341 whole entry): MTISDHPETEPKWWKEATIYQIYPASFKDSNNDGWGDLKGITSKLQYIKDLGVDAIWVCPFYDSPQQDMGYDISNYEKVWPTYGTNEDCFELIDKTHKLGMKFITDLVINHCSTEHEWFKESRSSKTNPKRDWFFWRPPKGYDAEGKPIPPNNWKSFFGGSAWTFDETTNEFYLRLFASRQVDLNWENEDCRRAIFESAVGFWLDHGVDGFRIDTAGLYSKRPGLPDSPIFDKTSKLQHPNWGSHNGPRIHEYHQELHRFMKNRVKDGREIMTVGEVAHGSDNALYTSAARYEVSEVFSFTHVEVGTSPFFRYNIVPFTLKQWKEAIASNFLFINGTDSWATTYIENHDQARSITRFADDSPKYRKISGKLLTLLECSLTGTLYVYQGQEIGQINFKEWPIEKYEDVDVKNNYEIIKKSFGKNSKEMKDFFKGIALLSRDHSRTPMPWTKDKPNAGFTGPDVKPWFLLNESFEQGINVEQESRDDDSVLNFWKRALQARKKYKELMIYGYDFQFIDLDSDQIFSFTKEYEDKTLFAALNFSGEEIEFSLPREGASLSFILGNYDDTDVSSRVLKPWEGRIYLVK

For `C[C@H]1O[C@H](O[C@H]2[C@H](O)[C@@H](O)[C@@H](O[C@H]3[C@H](O)[C@@H](O)C(O)O[C@@H]3CO)O[C@@H]2CO)[C@H](O)[C@@H](O)[C@@H]1N[C@H]1C=C(CO)[C@@H](O)[C@H](O)[C@H]1O` (some centres unmarked) [Acarbose, reference compound], the “α-Glucosidase Inhibitory Rate” value at α-glucosidase (at a concentration of 20 μM) amounted to 99.4 ± 0.0%.
Compound `O=C1O[C@H]([C@@H](O)CO)C(O)=C1O` [Ascorbic acid, reference compound] had a half-inhibitory concentration (IC50) in assay [1] of 19.8 ± 1.27 µM. Further, the “ABTS Assay, Trolox equivalents” value in assay [2] is recorded as 1.66 ± 0.050 ^e mol Trolox/mol. Also, the “FRAP Assay, Trolox equivalents” value in assay [3] is 1.68 ± 0.063 ^b mol Trolox/mol.
In assay [1], `COc1cc(O)cc(O)c1C(C)=O` [Compound 1, 4,6-dihydroxy-2-methoxyacetophenone] showed an IC50 of over 80 µM. In assay [2], the “ABTS Assay, Trolox equivalents” value is on record as 2.40 ± 0.16 ^a mol Trolox/mol. The inhibition at 20 µM on α-glucosidase (at a concentration of 20 μM) was under 50%.
`COc1cc(OC2OC(CO)C(O)C(O)C2O)cc(O)c1C(C)=O` [Compound 2, 4-O-β-D-glucopyranosyl-2-hydroxy-6-methoxyacetophenone]: the IC50 in assay [1] was over 80 µM. The “ABTS Assay, Trolox equivalents” value in assay [2] is listed as 0.87 ± 0.11 ^f mol Trolox/mol. Also, the inhibition at 20 µM at α-glucosidase (at a concentration of 20 μM) is 22.6 ± 3.4%.
For `CC(=O)c1c(O)cc(O)cc1OC1OC(CO)C(O)C(O)C1O` [Compound 3, 2,4,6-trihydroxy-acetophenone 2-O-β-D-glucoside] the same measures were over 80 µM, 1.97 ± 0.079 ^cd mol Trolox/mol and under 50%.
Compound `O=C(O)/C=C/c1ccc(O)cc1` [Compound 4, p-coumaric acid] yielded an IC50 in assay [1] of over 80 µM. Also, the “ABTS Assay, Trolox equivalents” value in assay [2] is on record as 2.28± 0.10 ^ab mol Trolox/mol. For the same compound, the inhibition at 20 µM at α-glucosidase was under 50%.
`O=C(O)/C=C/c1ccc(O)c(O)c1` [Compound 5, caffeic acid] registered an IC50 in assay [1] of 7.41 ± 0.74 µM. Also, the “ABTS Assay, Trolox equivalents” value in assay [2] is listed as 2.15 ± 0.0619 ^abc mol Trolox/mol. Also, the “FRAP Assay, Trolox equivalents” value in assay [3] was 1.73 ± 0.080 ^b mol Trolox/mol. Also, at α-glucosidase (at a concentration of 20 μM), the inhibition at 20 µM is under 50%. Further, the “glucose uptake in 3T3-L1 adipocytes” value with 3T3-L1 adipocytes (compounds at 20 μM, 48 h, versus control) is “weak effect”.
`COc1cc(/C=C/C(=O)OCC(O)CO)ccc1O` (centres unmarked) [Compound 6, 1-O-feruloylglycerol]: in assay [1], the IC50 is over 80 µM. The “ABTS Assay, Trolox equivalents” value in assay [2] is 1.80 ± 0.0462 ^de mol Trolox/mol. In addition, the “FRAP Assay, Trolox equivalents” value in assay [3] was 0.012 ± 0.014 ^d mol Trolox/mol. Besides, the inhibition at 20 µM on α-glucosidase (at a concentration of 20 μM) is 5.3 ± 1.8%.
Take `O=C(/C=C/c1ccc(O)cc1)OCC(O)COC(=O)/C=C/c1ccc(O)cc1` [Compound 7, 1,3-O-di-p-coumaroylglycerol]: the concentration for half-maximal inhibition (IC50) in assay [1] is over 80 µM. Besides, the “ABTS Assay, Trolox equivalents” value in assay [2] was 1.99 ± 0.11 ^cd mol Trolox/mol. For the same compound, the inhibition at 20 µM at α-glucosidase (at a concentration of 20 μM) stood at 46.1 ± 2.4%.
Compound `O=C(/C=C/c1ccc(O)cc1)OCC(O)COC(=O)/C=C/c1ccc(O)c(O)c1` (centres unmarked) [Compound 8, 1-O-p-coumaroyl-3-O-caffeoylglycerol] displayed an IC50 in assay [1] of 14.8 ± 1.83 µM. Moreover, the “ABTS Assay, Trolox equivalents” value in assay [2] is listed as 1.70 ± 0.066 ^e mol Trolox/mol. For the same compound, the “FRAP Assay, Trolox equivalents” value in assay [3] was 1.42 ± 0.073 ^c mol Trolox/mol. The inhibition at 20 µM on α-glucosidase (at a concentration of 20 μM) is 67%.
On to `O=C(/C=C/c1ccc(O)c(O)c1)OCC(O)COC(=O)/C=C/c1ccc(O)c(O)c1` [Compound 9, 1,3-O-dicaffeoylglycerol], for which the IC50 in assay [1] stood at 8.82 ± 1.12 µM. For the same compound, the “ABTS Assay, Trolox equivalents” value in assay [2] is 2.065 ± 0.050 ^bcd mol Trolox/mol. In assay [3], the “FRAP Assay, Trolox equivalents” value is listed as 2.42 ± 0.10 ^a mol Trolox/mol. For the same compound, on α-glucosidase (at a concentration of 20 μM), the inhibition at 20 µM was 88.8%.
For `COc1cc(-c2cc(=O)c3c(O)cc(O)cc3o2)cc(OC)c1O` [Compound 10, tricin], in assay [1], the IC50 was over 80 µM. In addition, in assay [2], the “ABTS Assay, Trolox equivalents” value is 1.64 ± 0.14 ^e mol Trolox/mol. For the same compound, the inhibition at 20 µM at α-glucosidase is 20.8 ± 7.3%.
`O=c1cc(-c2ccc(O)c(O)c2)oc2cc(O[C@@H]3O[C@H](CO)[C@@H](O)[C@H](O)[C@H]3O)cc(O)c12` [Compound 12, luteolin-7-O-β-D-glucopyranoside]: in assay [1], the IC50 worked out at 7.28 ± 1.48 µM. The “ABTS Assay, Trolox equivalents” value in assay [2] was 1.86 ± 0.075 ^de mol Trolox/mol. Moreover, the “FRAP Assay, Trolox equivalents” value in assay [3] is listed as 1.31 ± 0.057 ^c mol Trolox/mol. The inhibition at 20 µM on α-glucosidase was 21.9 ± 6%.
insulin: the “glucose uptake rates of 3T3-L1 adipocytes” value in the assay on 3T3-L1 adipocytes (positive control group versus control group, p < 0.001) is listed as “noticeably promoted”.
